In patent US8440628B2, “Medical compositions containing ghrelin” (Daiichi Sankyo Company, Limited, priority 2002, dated 2013):

Experiments:
Format in all cases: physicochemical
[1] = Stability of human ghrelin in 0.1M HCl and Mcllvain buffer solutions of various pH at 25°C (Example 2, HPLC peak area ratio)
Procedure: Human ghrelin was dissolved in the following aqueous solutions in the concentration of about 0.15 μmol/mL (0.5 mg/mL).
0.1M HCl aqueous solution (pH: 1.1)
The pH was adjusted with 0.1M citric aqueous acid and 0.2M dibasic sodium phosphate aqueous solution.
Each solution were stored at 25±2° C. for 8, 24, 48 and 72 hours respectively, and the obtained solutions were detected by HPLC analysis in comparison to the solutions before storage. […] No significant changes of pH in solution before storage and after storage were observed.

[2] = Stability of human ghrelin in pH-adjusted purified water at 25°C (Example 7); settings: for Peak area ratio to total peak area: 25±2°C
Procedure: Human ghrelin was dissolved in the purified water with about 0.03 μmol/mL (0.1 mg/mL). […] This solution was divided into quarter, and one portion was kept alone and the pH values of the remaining three portions were adjusted to pH 1.8 (with 17 mM of hydrochloric acid), pH 3.9 (with 0.20 mM of hydrochloric acid) and pH 7.8 (with 0.24 mM of sodium hydroxide) respectively, by adding along with hydrochloric acid or sodium hydroxide aqueous solution.

[3] = Stability of human ghrelin in Britton-Robinson buffer solutions of various pH at 40°C (Example 3); settings: pH range of 2 to 7, stored at 40° C. for 1 day (FIG. 3)
Procedure: Human ghrelin, which is one of the ghrelins, was dissolved in the Britton-Robinson buffer solutions which is adjusted by combining 0.04M phosphoric acid-acetic acid-boric acid aqueous solution and 0.2M sodium hydrate aqueous solution in appropriate ratio, having pH of 2.1, 3.1, 4.0, 5.0, 6.0, 7.0 and 7.9 to obtain an aqueous solution containing human ghrelin in the concentration of about 0.15 μmol/mL (0.5 mg/mL). The obtained solution was filled in brownish glass ampoules and the ampoules were sealed with fire. For the calculation of kinetic constant, the certain degrees of degradation products have to be occurred in the aqueous solution of the ghrelins, and therefore, the ampoules were stored at 40±1° C., which was severe conditions for storage. The concentration (residual ratio) of human ghrelin was conducted by HPLC with time. At the same time, the pH of the solution was measured and it was confirmed that there was no significant changes of pH in solution.
The kinetic constants in each pH solution were calculated from the sequential change of the residual ratio, and the results were shown in FIG. 2.

In the case of “[3-Dehydroalanine]human ghrelin [Dha compound]”, the “Production of the degradation product in human ghrelin solution” value (“Production of the degradation product” for short) ([1]; Mcllvain buffer, pH range of 3.0 to 5.0, 25±2°C, up to 72 hours) is reported as “inhibited”, the “Peak area ratio to total peak area” value ([1]; human ghrelin 0.5 mg/mL in 0.1M HCl aqueous solution, pH 1, 25±2°C, 8 hr. after) is reported as 0.15% and the “Peak area ratio to total peak area” value ([1]; human ghrelin 0.5 mg/mL in 0.1M HCl aqueous solution, pH 1, 25±2°C, 24 hr. after) is reported as 0.09%. The “Peak area ratio to total peak area” value ([1]; human ghrelin 0.5 mg/mL in 0.1M HCl aqueous solution, pH 1, 25±2°C, 48 hr. after) was 0.04%, the “Peak area ratio to total peak area” value ([1]; human ghrelin 0.5 mg/mL in 0.1M HCl aqueous solution, pH 1, 25±2°C, 72 hr. after) was 0.00% and the “Peak area ratio to total peak area” value ([1]; human ghrelin 0.5 mg/mL in 0.1M HCl aqueous solution, pH 1, 25±2°C, before storage) was 0.21%. The “Peak area ratio to total peak area” value ([1]; human ghrelin 0.5 mg/mL in Mcllvain buffer, pH 2, 25±2°C, 8 hr. after) was 0.20%, the “Peak area ratio to total peak area” value ([1]; human ghrelin 0.5 mg/mL in Mcllvain buffer, pH 2, 25±2°C, 24 hr. after) was 0.23% and the “Peak area ratio to total peak area” value ([1]; human ghrelin 0.5 mg/mL in Mcllvain buffer, pH 2, 25±2°C, 48 hr. after) was 0.24%. The “Peak area ratio to total peak area” value ([1]; human ghrelin 0.5 mg/mL in Mcllvain buffer, pH 2, 25±2°C, 72 hr. after) was 0.25%, the “Peak area ratio to total peak area” value ([1]; human ghrelin 0.5 mg/mL in Mcllvain buffer, pH 2, 25±2°C, before storage) was 0.20% and the “Peak area ratio to total peak area” value ([1]; human ghrelin 0.5 mg/mL in Mcllvain buffer, pH 3, 25±2°C, 8 hr. after) was 0.20%. The “Peak area ratio to total peak area” value ([1]; human ghrelin 0.5 mg/mL in Mcllvain buffer, pH 3, 25±2°C, 24 hr. after) was 0.23%, the “Peak area ratio to total peak area” value ([1]; human ghrelin 0.5 mg/mL in Mcllvain buffer, pH 3, 25±2°C, 48 hr. after) was 0.24% and the “Peak area ratio to total peak area” value ([1]; human ghrelin 0.5 mg/mL in Mcllvain buffer, pH 3, 25±2°C, 72 hr. after) was 0.25%. For the same substance, the “Peak area ratio to total peak area” value ([1]; human ghrelin 0.5 mg/mL in Mcllvain buffer, pH 3, 25±2°C, before storage) was 0.20%, the “Peak area ratio to total peak area” value ([1]; human ghrelin 0.5 mg/mL in Mcllvain buffer, pH 4, 25±2°C, 8 hr. after) was 0.20% and the “Peak area ratio to total peak area” value ([1]; human ghrelin 0.5 mg/mL in Mcllvain buffer, pH 4, 25±2°C, 24 hr. after) was 0.21%. The “Peak area ratio to total peak area” value ([1]; human ghrelin 0.5 mg/mL in Mcllvain buffer, pH 4, 25±2°C, 48 hr. after) was 0.22%, the “Peak area ratio to total peak area” value ([1]; human ghrelin 0.5 mg/mL in Mcllvain buffer, pH 4, 25±2°C, 72 hr. after) was 0.23% and the “Peak area ratio to total peak area” value ([1]; human ghrelin 0.5 mg/mL in Mcllvain buffer, pH 4, 25±2°C, before storage) was 0.20%. For the same substance, the “Peak area ratio to total peak area” value ([1]; human ghrelin 0.5 mg/mL in Mcllvain buffer, pH 5, 25±2°C, 8 hr. after) was 0.21%, the “Peak area ratio to total peak area” value ([1]; human ghrelin 0.5 mg/mL in Mcllvain buffer, pH 5, 25±2°C, 24 hr. after) was 0.21% and the “Peak area ratio to total peak area” value ([1]; human ghrelin 0.5 mg/mL in Mcllvain buffer, pH 5, 25±2°C, 48 hr. after) was 0.23%. The “Peak area ratio to total peak area” value ([1]; human ghrelin 0.5 mg/mL in Mcllvain buffer, pH 5, 25±2°C, 72 hr. after) was 0.24%, the “Peak area ratio to total peak area” value ([1]; human ghrelin 0.5 mg/mL in Mcllvain buffer, pH 5, 25±2°C, before storage) was 0.21% and the “Peak area ratio to total peak area” value ([1]; human ghrelin 0.5 mg/mL in Mcllvain buffer, pH 6, 25±2°C, 8 hr. after) was 0.21%. For the same substance, the “Peak area ratio to total peak area” value ([1]; human ghrelin 0.5 mg/mL in Mcllvain buffer, pH 6, 25±2°C, 24 hr. after) was 0.26%, the “Peak area ratio to total peak area” value ([1]; human ghrelin 0.5 mg/mL in Mcllvain buffer, pH 6, 25±2°C, 48 hr. after) was 0.31% and the “Peak area ratio to total peak area” value ([1]; human ghrelin 0.5 mg/mL in Mcllvain buffer, pH 6, 25±2°C, 72 hr. after) was 0.35%. For the same substance, the “Peak area ratio to total peak area” value ([1]; human ghrelin 0.5 mg/mL in Mcllvain buffer, pH 6, 25±2°C, before storage) was 0.20%, the “Peak area ratio to total peak area” value ([1]; human ghrelin 0.5 mg/mL in Mcllvain buffer, pH 7, 25±2°C, 8 hr. after) was 0.25% and the “Peak area ratio to total peak area” value ([1]; human ghrelin 0.5 mg/mL in Mcllvain buffer, pH 7, 25±2°C, 24 hr. after) was 0.43%. For the same substance, the “Peak area ratio to total peak area” value ([1]; human ghrelin 0.5 mg/mL in Mcllvain buffer, pH 7, 25±2°C, 48 hr. after) was 0.61%, the “Peak area ratio to total peak area” value ([1]; human ghrelin 0.5 mg/mL in Mcllvain buffer, pH 7, 25±2°C, 72 hr. after) was 0.79% and the “Peak area ratio to total peak area” value ([1]; human ghrelin 0.5 mg/mL in Mcllvain buffer, pH 7, 25±2°C, before storage) was 0.22%. The “Peak area ratio to total peak area” value ([1]; human ghrelin 0.5 mg/mL in Mcllvain buffer, pH 8, 25±2°C, 8 hr. after) was 0.68%, the “Peak area ratio to total peak area” value ([1]; human ghrelin 0.5 mg/mL in Mcllvain buffer, pH 8, 25±2°C, 24 hr. after) was 1.39% and the “Peak area ratio to total peak area” value ([1]; human ghrelin 0.5 mg/mL in Mcllvain buffer, pH 8, 25±2°C, 48 hr. after) was 2.39%. The “Peak area ratio to total peak area” value ([1]; human ghrelin 0.5 mg/mL in Mcllvain buffer, pH 8, 25±2°C, 72 hr. after) was 3.12%, the “Peak area ratio to total peak area” value ([1]; human ghrelin 0.5 mg/mL in Mcllvain buffer, pH 8, 25±2°C, before storage) was 0.24% and the “Production of the degradation product” value ([2]; aqueous solution of pH 3.9 and 4.7, 25±2°C, up to 3 days) was “inhibited”. For the same substance, the “Peak area ratio to total peak area” value ([2]; human ghrelin 0.1 mg/mL in purified water adjusted to pH 1.8 with hydrochloric acid, 1 day after) was 0.31%, the “Peak area ratio to total peak area” value ([2]; human ghrelin 0.1 mg/mL in purified water adjusted to pH 1.8 with hydrochloric acid, before storage) was 0.20% and the “Peak area ratio to total peak area” value ([2]; human ghrelin 0.1 mg/mL in purified water adjusted to pH 3.9 with hydrochloric acid, 1 day after) was 0.20%. The “Peak area ratio to total peak area” value ([2]; human ghrelin 0.1 mg/mL in purified water adjusted to pH 3.9 with hydrochloric acid, 3 days after) was 0.19%, the “Peak area ratio to total peak area” value ([2]; human ghrelin 0.1 mg/mL in purified water adjusted to pH 3.9 with hydrochloric acid, before storage) was 0.20% and the “Peak area ratio to total peak area” value ([2]; human ghrelin 0.1 mg/mL in purified water adjusted to pH 7.8 with sodium hydroxide, 1 day after) was 0.86%. For the same substance, the “Peak area ratio to total peak area” value ([2]; human ghrelin 0.1 mg/mL in purified water adjusted to pH 7.8 with sodium hydroxide, before storage) was 0.24%, the “Peak area ratio to total peak area” value ([2]; human ghrelin 0.1 mg/mL in purified water, pH 4.7 (not adjusted), 1 day after) was 0.21% and the “Peak area ratio to total peak area” value ([2]; human ghrelin 0.1 mg/mL in purified water, pH 4.7 (not adjusted), 3 days after) was 0.21%. For the same substance, the “Peak area ratio to total peak area” value ([2]; human ghrelin 0.1 mg/mL in purified water, pH 4.7 (not adjusted), before storage) was 0.20% and the “Production of the degradation product” value [3] was “inhibited”.
